Experimental findings from patent US9469652B2, “ERK inhibitors” (Eli Lilly and Company, priority 2014, dated 2016) are described below.

Experiment [1] addresses T1, ERK2 (Homo sapiens, UniProt P28482).
T1 construct: purchased Invitrogen PV3595B
In words: ERK2 Kinase Assay (TR-FRET). Type of experiment: biochemical. The note with it: Abs_IC50, ATP 10 μM, GFP-ATF2 substrate; ±0.24, n=7. The protocol: The purpose of this assay is to measure the ability of compounds to inhibit ERK2 kinase activity. Perform the ERK2 kinase assay in vitro using a TR-FRET assay. Start all reactions (12.5 μL) by adding 5 μL of ERK2 enzyme (Invitrogen, #PV3595B, final conc 50 ng/mL) plus substrate GFP-ATF2 (Invitrogen, #PV4445, final conc 0.2 μM), 5 μL of ATP solution (Invitrogen, #PV3227, final conc 10 μM) prepared in kinase buffer (50 mM Hepes pH 7.4, 5 mM MgCl2, 0.1 mM EGTA, 0.01% Triton X-100, 1 mM DTT) and 2.5 μL of testing compounds in DMSO solution (final 4%, v/v) in a 384-well PROXIPLATE™ (Perkin Elmer, #GRN6260). Incubate reactions at room temperature for 60 minutes. Stop reactions by addition of 12.5 μL of stop buffer (10 mM EDTA, 2 nM Tb-anti-pATF2 (pThr71) antibody, Invitrogen, #PV4448) in TR-FRET dilution buffer (Invitrogen, #PV3574). Incubate the plates at room temperature for an additional 60 minutes and read ON ENVISION® (PerkinElmer) plate reader at the excitation wavelength of 340 nm Calculate a TR-FRET ratio by dividing the GFP acceptor emission signal (at 520 nm) by the Tb donor emission signal (at 495 nm). Calculate percent inhibition using compound wells relative to on-plate Max (DMSO control) and Min (No enzyme added) control wells TR-FRET ratio data {% inhibition=100−[(test compound−median Min)/(median Max−median Min)×100]}. […]
(TR-FRET usually uses a lanthanide donor and a delayed reading to cut background.)

Experiment [2] concerns human colorectal cancer cells COLO-205. In words: Xenograft tumor model COLO-205. Type of experiment: in vivo, female athymic nude mice. As to conditions: oral gavage; for Delta T/C % or Regr %: negative = regression. The procedure: (§1) The purpose of this assay is to measure reduction in tumor volume in response to test compound administration. Expand human colorectal cancer cells HCT116 (ATCC, # CCL-247) in culture, harvest and inject 5×10e^6 cells in 200 μL of 1:1 HBSS+matrigel solution subcutaneously on to the rear right flank of female athymic nude mice (22-25 g, Harlan Laboratories). Expand human pancreatic cancer cells MIA PACA-2 (ATCC, # CRL-1420) or human non-small cell lung cancer cells CALU-6 (ATCC, #HTB-56) or human colorectal cancer cells COLO-205 (ATCC, #CCL-222) in culture, harvest and inject 5×10e^6 cells in 200 μL of 1:1 HBSS+matrigel solution subcutaneously on to the rear right flank of female athymic nude mice (22-25 g, Harlan Laboratories). Measure tumor growth and body weight twice per week beginning the seventh day after the implantation. When tumor sizes reach 200-400 mm^3, randomize animals and group into groups of eight to ten animals. Prepare test compound in an appropriate vehicle (vehicle: 1% HEC/0.25% Tween 80/0.05% Antifoam) and administer by oral gavage for 14 to 21 days. Tumor response is determined by tumor volume measurement performed twice a week during the course of treatment. Body weight is taken as a general measure of toxicity.
(§2) A compound within the scope of invention is tested in this assay run substantially as above.

The test system of experiment [3] is human non-small cell lung cancer cells NCI-H441 (KRAS_G12V). In words: In vivo combination study, NCI-H441 NSCLC xenograft model. The note with it: single agent. The protocol: More specifically, the compound of Example 1 is tested in combination with either the pan-RAF inhibitor compound or the CDK4/6 inhibitor compound in HCT116, a KRAS mutant colorectal cancer xenograft model. Also, the compound of Example 1 is tested in combination with either the CDK4/6 inhibitor compound or DC101 in NCI-H441, A549, and NCI-H2122, KRAS mutant non-small cell lung cancer (NSCLC) xenograft models.
Combination efficacy is also tested in three KRAS mutant NSCLC xenograft models including A549 (KRAS_G12S) in SCID mice as well as NCI-H441 (KRAS_G12V) and NCI-H2122 (KRAS_G12C) in athymic nude mice. Expand human non-small cell lung cancer cells NCI-H441 (ATCC, #CRL-5807) and NCI-H2122 (ATCC, #CRL-5985) in culture, harvest and inject 5×10e^6 cells in 200 μL of 1:1 HBSS+matrigel solution subcutaneously on to the rear right flank of female athymic nude mice (20-22 gm, Harlan Laboratories). Expand human non-small cell lung cancer cells A549 (ATCC, #CC1-185) in culture, harvest and inject 5×10e^6 cells in 200 μL of 1:1 HBSS+matrigel solution subcutaneously on to the rear right flank of female CB-17 SCID mice (18-20 gm, Taconic Farms). For all cell lines, measure tumor growth and body weight twice per week beginning the seventh day after the implantation. When average tumor sizes reach 200-300 mm^3, randomize animals and group into groups of five to seven animals. Prepare test compound in an appropriate vehicle (see below) and administer by oral gavage (compound of Example 1 and the CDK4/6 inhibitor compound) or intraperitoneally (DC101) for 21 to 28 days. Tumor response is determined by tumor volume measurement performed twice a week during the course of treatment. Vehicle used in these studies is 1% HEC/0.25% Tween® 80/0.05% Antifoam. The compound of Example 1 is formulated in 1% HEC/0.25% Tween® 80/0.05% Antifoam and the CDK4/6 inhibitor compound is formulated in 1% HEC in 25 mM sodium phosphate buffer, pH 2. […] In the same NCI-H441 xenograft model, DC101 in phosphate buffer is also administered intraperitoneally twice per week (BIW) as a single agent or in combination with the compound of Example 1, 50 mpk, QD for 28 days.

Experiment [4] deals with human non-small cell lung cancer cells CALU-6. In words: Xenograft tumor model CALU-6. The class given is in vivo, female athymic nude mice. As to conditions: oral gavage; for Delta T/C % or Regr %: negative = regression. The protocol:
as §1, §2

T1 sequence (P28482 whole entry): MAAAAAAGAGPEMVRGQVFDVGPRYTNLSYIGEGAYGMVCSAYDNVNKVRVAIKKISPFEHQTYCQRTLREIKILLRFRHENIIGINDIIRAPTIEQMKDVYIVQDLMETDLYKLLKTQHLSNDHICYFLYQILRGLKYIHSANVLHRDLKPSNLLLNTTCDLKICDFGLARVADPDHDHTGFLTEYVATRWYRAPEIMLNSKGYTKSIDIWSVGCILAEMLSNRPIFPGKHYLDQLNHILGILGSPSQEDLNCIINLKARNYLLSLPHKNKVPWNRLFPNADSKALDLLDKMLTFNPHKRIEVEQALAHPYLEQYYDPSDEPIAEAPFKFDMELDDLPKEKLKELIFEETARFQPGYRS

For the compound `Cn1nccc1Nc1nccc(-c2cc3c(s2)C(C)(C)N(CCN2CCOCC2)C3=O)n1` [Example 1, 6,6-Dimethyl-2-{2-[(1-methyl-1H-pyrazol-5-yl)amino]pyrimidin-4-yl}-5-[2-(morpholin-4-yl)ethyl]-5,6-dihydro-4H-thieno[2,3-c]pyrrol-4-one], the IC50 in experiment [1] came out at 5.24 nM. Also, the TGI % in experiment [2] (12.5 mg/kg QD) is on record as 119%; in experiment [2] (25 mg/kg QD), 132%; in experiment [2] (100 mg/kg QD), 176%; in experiment [4] (12.5 mg/kg QD), 78%; in experiment [4] (25 mg/kg QD), 86%; in experiment [4] (50 mg/kg QD), 131%. Further, the TGI % in experiment [4] (100 mg/kg QD) is 177%. The “Delta T/C % or Regr %” value in experiment [2] (12.5 mg/kg QD) is reported as −19%; in experiment [2] (25 mg/kg QD), −32%; in experiment [2] (100 mg/kg QD), −76%; in experiment [4] (12.5 mg/kg QD) it was 22%; in experiment [4] (25 mg/kg QD), 14%; in experiment [4] (50 mg/kg QD) it was −31%. Moreover, the “Delta T/C % or Regr %” value in experiment [4] (100 mg/kg QD) is −77%. Further, in experiment [3] (50 mg/kg QD, oral, 28 days), the Regression % is given as 1%. Also, the tumor growth inhibition in experiment [3] (50 mpk) was 101%.

As a reminder, the IC50 is the concentration at which inhibition is half-maximal. Read a low IC50 as greater potency in that assay.
